Test results published in patent US11957759B1, “Rapidly accelerated fibrosarcoma (RAF) degrading compounds and associated methods of use” (Arvinas Operations, Inc., priority 2022, dated 2024).

Columns and labels:
B-RAF V600E = molecular target: T1, B-RAF V600E (Homo sapiens, UniProt P15056, V600E); test: Target protein degradation, assay C: T-Rex 293 cells, HA-BRAF_V600E, 384 well format; type: cell-based; conditions: T-Rex 293 HA-BRAF_V600E cells, 24 hours, Examples 83-269; for DC50: Assay C; for Dmax: T-REx-293, Assay C
T1 construct: expressed in transfected cells; host or cells: T-Rex 293 cells (Invitrogen #R71007)
T1 sequence (P15056 whole entry V600E): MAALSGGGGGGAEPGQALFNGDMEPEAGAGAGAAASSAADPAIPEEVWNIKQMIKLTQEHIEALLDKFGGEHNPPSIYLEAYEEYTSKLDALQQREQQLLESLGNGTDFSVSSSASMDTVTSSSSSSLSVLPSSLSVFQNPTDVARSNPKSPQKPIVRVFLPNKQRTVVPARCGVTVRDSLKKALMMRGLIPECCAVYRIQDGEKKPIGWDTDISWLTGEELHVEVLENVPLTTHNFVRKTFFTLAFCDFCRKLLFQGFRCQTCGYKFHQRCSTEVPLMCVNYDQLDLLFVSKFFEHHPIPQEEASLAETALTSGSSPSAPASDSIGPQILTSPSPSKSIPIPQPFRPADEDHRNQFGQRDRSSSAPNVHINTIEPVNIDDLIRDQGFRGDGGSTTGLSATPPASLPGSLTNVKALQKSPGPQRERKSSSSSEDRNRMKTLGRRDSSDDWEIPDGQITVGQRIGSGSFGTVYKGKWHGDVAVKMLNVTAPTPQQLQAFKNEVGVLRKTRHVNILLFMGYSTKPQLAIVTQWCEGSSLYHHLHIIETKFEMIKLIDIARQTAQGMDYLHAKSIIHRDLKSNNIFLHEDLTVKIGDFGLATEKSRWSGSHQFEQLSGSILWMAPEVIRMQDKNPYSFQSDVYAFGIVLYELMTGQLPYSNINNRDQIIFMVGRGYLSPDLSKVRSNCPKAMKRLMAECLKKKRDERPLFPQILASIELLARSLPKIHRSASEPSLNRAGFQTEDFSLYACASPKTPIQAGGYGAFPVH
Method in brief: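 After 24 h exposure to an 11-point 1:3 series (300 nM–5 pM, 0.5% DMSO), fixed T-Rex 293 cells carrying HA-BRAF V600E (induced with 1 ng/mL doxycycline) were stained anti-HA and imaged. DC50 and Dmax were derived from BRAF intensity relative to control, and cytotoxicity from nuclear counts.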

B-RAF G466V = molecular target: T2, B-RAF G466V (Homo sapiens, UniProt P15056, G466V); test: Target protein degradation, assay D: T-Rex 293 cells, HA-BRAF_G466V, 384 well format; type: cell-based; conditions: T-Rex 293 HA-BRAF_G466V cells, 24 hours, Examples 83-269; for DC50: Assay D; for Dmax: T-REx-293, Assay D
T2 construct: expressed in transfected cells; host or cells: T-Rex 293 cells (Invitrogen #R71007)
T2 sequence (P15056 whole entry G466V): as the sequence (P15056 whole entry V600E) above, with G466V, E600V counted along it
Method in brief: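 Degradation measured by high-content imaging of anti-HA immunofluorescence in fixed T-Rex 293 cells carrying inducible HA-BRAF G466V (1 ng/mL doxycycline), after 24 h PROTAC exposure at 37 °C over 300 nM–5 pM (1:3, 11 points, 0.5% DMSO). Outputs DC50 and Dmax as % of control; nuclei counts against DMSO wells gauge toxicity.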

Row | Compound | DC50 (B-RAF V600E) [nM] | Dmax (B-RAF V600E) [%] | DC50 (B-RAF G466V) [nM] | Dmax (B-RAF G466V) [%]
1 | N#Cc1c(NS(=O)(=O)N2CC[C@@H](F)C2)ccc(F)c1Oc1ccc2ncn(-c3ccc(N4CC(CC5CN(c6ccc7c(c6)C(=O)N(C6CCC(=O)NC6=O)C7=O)C5)C4)nc3)c(=O)c2c1 (stereo partly drawn) [Example 159, (3R)-N-{2-cyano-3-[(3-{6-[3-({1-[2-(2,6-dioxopiperidin-3-yl)-1,3-dioxo-2,3-dihydro-1H-isoindol-5-yl]azetidin-3-yl}methyl)azetidin-1-yl]pyridin-3-yl}-4-oxo-3,4-dihydroquinazolin-6-yl)oxy]-4-fluorophenyl}-3-fluoropyrrolidine-1-sulfonamide] | 50 to 500 | 35 to 70 | 1 to 10 | ≤ 35
2 | C[C@H]1CN(CC2CCN(c3ccc4c(c3)CN([C@H]3CCC(=O)NC3=O)C4=O)CC2)CCN1c1ccc(-n2cnc3ccc(Oc4c(F)ccc(NS(=O)(=O)N5CC[C@@H](F)C5)c4C#N)cc3c2=O)cc1 [Example 84, (3R)-N-{2-cyano-3-[(3-(4-[(2S)-4-[(1-{2-[(3S)-2,6-dioxopiperidin-3-yl]-1-oxo-2,3-dihydro-1H-isoindol-5-yl}piperidin-4-yl)methyl]-2-methylpiperazin-1-yl]phenyl}-4-oxo-3,4-dihydroquinazolin-6-yl)oxy]-4-fluorophenyl}-3-fluoropyrrolidine-1-sulfonamide] | 5 to 50 | 35 to 70 | ≤ 1 | 35 to 70
3 | N#Cc1c(NS(=O)(=O)N2CC[C@@H](F)C2)ccc(F)c1Oc1ccc2ncn(-c3ccc(N4CCC(CN5CCN(CC6CCN(c7ccc8c(c7)CN([C@H]7CCC(=O)NC7=O)C8=O)CC6)CC5)CC4)cc3)c(=O)c2c1 [Example 185, (3R)-N-{2-cyano-3-[(3-{4-[4-({4-[(1-{2-[(3S)-2,6-dioxopiperidin-3-yl]-1-oxo-2,3-dihydro-1H-isoindol-5-yl}piperidin-4-yl)methyl]piperazin-1-yl}methyl)piperidin-1-yl]phenyl}-4-oxo-3,4-dihydroquinazolin-6-yl)oxy]-4-fluorophenyl}-3-fluoropyrrolidine-1-sulfonamide] | 50 to 500 | 35 to 70 | 10 to 30 | ≤ 35
4 | N#Cc1c(NS(=O)(=O)N2CC[C@@H](F)C2)ccc(F)c1Oc1ccc2ncn(-c3cnc(N4CCC(CN5CC6(CCN(c7ccc8c(c7)CN(C7CCC(=O)NC7=O)C8=O)CC6)C5)CC4)nc3)c(=O)c2c1 (stereo partly drawn) [Example 132, (3R)-N-{2-cyano-3-[(3-{2-[4-({7-[2-(2,6-dioxopiperidin-3-yl)-1-oxo-2,3-dihydro-1H-isoindol-5-yl]-2,7-diazaspiro[3.5]nonan-2-yl}methyl)piperidin-1-yl]pyrimidin-5-yl}-4-oxo-3,4-dihydroquinazolin-6-yl)oxy]-4-fluorophenyl}-3-fluoropyrrolidine-1-sulfonamide] | 50 to 500 | 35 to 70 | ≤ 1 | 35 to 70
5 | Cn1c(=O)n(C2CCC(=O)NC2=O)c2cccc(N3CCN(CCN4CCN(c5ccc(-n6cnc7ccc(Oc8c(F)ccc(NS(=O)(=O)N9CC[C@@H](F)C9)c8C#N)cc7c6=O)cc5)CC4)CC3)c21 (stereo partly drawn) [Example 245, (3R)-N-{2-cyano-3-[(3-{4-[4-(2-{4-[1-(2,6-dioxopiperidin-3-yl)-3-methyl-2-oxo-2,3-dihydro-1H-1,3-benzodiazol-4-yl]piperazin-1-yl}ethyl)piperazin-1-yl]phenyl}-4-oxo-3,4-dihydroquinazolin-6-yl)oxy]-4-fluorophenyl}-3-fluoropyrrolidine-1-sulfonamide] | 50 to 500 | ≥ 70 | 1 to 10 | 35 to 70
6 | CC(C)(C1CCN(c2ccc(-n3cnc4ccc(Oc5c(F)ccc(NS(=O)(=O)N6CC[C@@H](F)C6)c5C#N)cc4c3=O)cc2)CC1)N1CCN(c2ccc3c(c2)CN([C@H]2CCC(=O)NC2=O)C3=O)CC1 [Example 269, (3R)-N-(2-cyano-3-{[3-(4-{4-[2-(4-{2-[(3S)-2,6-dioxopiperidin-3-yl]-1-oxo-2,3-dihydro-1H-isoindol-5-yl}piperazin-1-yl)propan-2-yl]piperidin-1-yl}phenyl)-4-oxo-3,4-dihydroquinazolin-6-yl]oxy}-4-fluorophenyl)-3-fluoropyrrolidine-1-sulfonamide] | 50 to 500 | 35 to 70 | 10 to 30 | ≥ 70
7 | N#Cc1c(NS(=O)(=O)N2CC[C@@H](F)C2)ccc(F)c1Oc1ccc2ncn(-c3ccc(N4CCC(CN5CC6(CCN(c7ccc8c(c7)CN([C@H]7CCC(=O)NC7=O)C8=O)CC6)C5)CC4)cc3)c(=O)c2c1 [Example 238, (3R)-N-(2-cyano-3-{[3-(4-{4-[(7-{2-[(3S)-2,6-dioxopiperidin-3-yl]-1-oxo-2,3-dihydro-1H-isoindol-5-yl}-2,7-diazaspiro[3.5]nonan-2-yl)methyl]piperidin-1-yl}phenyl)-4-oxo-3,4-dihydroquinazolin-6-yl]oxy}-4-fluorophenyl)-3-fluoropyrrolidine-1-sulfonamide] | 50 to 500 | ≥ 70 | 1 to 10 | ≥ 70
8 | N#Cc1c(NS(=O)(=O)N2CC[C@@H](F)C2)ccc(F)c1Oc1ccc2ncn(-c3ccc(N4CCN(c5ccc(C(=O)NC6CCC(=O)NC6=O)c(F)c5)CC4)nc3)c(=O)c2c1 (stereo partly drawn) [Example 162, 4-[4-(5-{6-[2-cyano-6-fluoro-3-({[(3R)-3-fluoropyrrolidin-1-yl]sulfonyl}amino)phenoxy]-4-oxo-3,4-dihydroquinazolin-3-yl}pyridin-2-yl)piperazin-1-yl]-N-(2,6-dioxopiperidin-3-yl)-2-fluorobenzamide] | 5 to 50 | 35 to 70 | ≤ 1 | ≤ 35
9 | N#Cc1c(NS(=O)(=O)N2CC[C@@H](F)C2)ccc(F)c1Oc1ccc2ncn(-c3ccc(N4CCC(CN5CC(c6ccc([C@@H]7CCC(=O)NC7=O)cc6F)C5)CC4)cc3)c(=O)c2c1 [Example 184, (3R)-N-(2-cyano-3-{[3-(4-{4-[(3-{4-[(3S)-2,6-dioxopiperidin-3-yl]-2-fluorophenyl}azetidin-1-yl)methyl]piperidin-1-yl}phenyl)-4-oxo-3,4-dihydroquinazolin-6-yl]oxy}-4-fluorophenyl)-3-fluoropyrrolidine-1-sulfonamide] | 50 to 500 | ≤ 35 | > 30 | –
10 | CN(c1ccc(-n2cnc3ccc(Oc4c(F)ccc(NS(=O)(=O)N5CC[C@@H](F)C5)c4C#N)cc3c2=O)cc1)[C@H]1CC[C@@H](N2CCN(c3ccc4c(c3)CN([C@H]3CCC(=O)NC3=O)C4=O)CC2)CC1 [Example 224, (3R)-N-(2-cyano-4-fluoro-3-{[3-(4-{methyl[(1r,4r)-4-(4-{2-[(3S)-2,6-dioxopiperidin-3-yl]-1-oxo-2,3-dihydro-1H-isoindol-5-yl}piperazin-1-yl)cyclohexyl]amino}phenyl)-4-oxo-3,4-dihydroquinazolin-6-yl]oxy}phenyl)-3-fluoropyrrolidine-1-sulfonamide] | 50 to 500 | ≤ 35 | 10 to 30 | 35 to 70
11 | N#Cc1c(NS(=O)(=O)N2CC[C@@H](F)C2)ccc(F)c1Oc1ccc2ncn(-c3ccn(C4CCN(CC5CCN(c6ccc7c(c6)CN([C@H]6CCC(=O)NC6=O)C7=O)CC5)CC4)n3)c(=O)c2c1 [Example 248, (3R)—N-(2-cyano-3-{[3-(1-{1-[(1-{2-[(3S)-2,6-dioxopiperidin-3-yl]-1-oxo-2,3-dihydro-1H-isoindol-5-yl}piperidin-4-yl)methyl]piperidin-4-yl}-1H-pyrazol-3-yl)-4-oxo-3,4-dihydroquinazolin-6-yl]oxy}-4-fluorophenyl)-3-fluoropyrrolidine-1-sulfonamide] | 50 to 500 | ≥ 70 | 1 to 10 | ≥ 70
12 | N#Cc1c(NS(=O)(=O)N2CC[C@@H](F)C2)ccc(F)c1Oc1ccc2ncn(-c3ccc(N4CCN(CC5(F)CCN(c6ccc7c(c6)CN([C@H]6CCC(=O)NC6=O)C7=O)CC5)CC4)cc3)c(=O)c2c1 [Example 223, (3R)-N-(2-cyano-3-{[3-(4-{4-[(1-{2-[(3S)-2,6-dioxopiperidin-3-yl]-1-oxo-2,3-dihydro-1H-isoindol-5-yl}-4-fluoropiperidin-4-yl)methyl]piperazin-1-yl}phenyl)-4-oxo-3,4-dihydroquinazolin-6-yl]oxy}-4-fluorophenyl)-3-fluoropyrrolidine-1-sulfonamide] | 50 to 500 | 35 to 70 | 1 to 10 | 35 to 70
13 | N#Cc1c(NS(=O)(=O)N2CC[C@@H](F)C2)ccc(F)c1Oc1ccc2ncn(-c3ccc(N4CCC(c5ccc6c(c5)C(=O)N(C5CCC(=O)NC5=O)C6=O)CC4)nc3)c(=O)c2c1 (stereo partly drawn) [Example 135, (3R)-N-(2-cyano-3-{[3-(6-{4-[2-(2,6-dioxopiperidin-3-yl)-1,3-dioxo-2,3-dihydro-1H-isoindol-5-yl]piperidin-1-yl}pyridin-3-yl)-4-oxo-3,4-dihydroquinazolin-6-yl]oxy}-4-fluorophenyl)-3-fluoropyrrolidine-1-sulfonamide] | > 500 | – | > 30 | –
